Experimental data as given in patent US9567318B2, “Substituted pyrimidine compounds and uses thereof” (Memorial Sloan-Kettering Cancer Center, priority 2009, dated 2017).

Columns and labels:
Assay type in all cases: cell-based, human
[1] = system: Kasumi-1 cells; experiment: Apoptosis, acridine orange/ethidium bromide, Kasumi-1; conditions: 10 μM, 24 h
Method: FIG. 13. YK5 has a higher apoptotic effect than Hsp90 inhibitors in select tumors. (a-d) Cells were treated with the indicated concentrations of inhibitors for the times presented. (a,b) Apoptotic cells were quantified by dual acridine orange/ethidium bromide staining as described in Methods. (c,d) Molecular markers of apoptosis (PARP cleavage) were analyzed in cells treated for 24 h with indicated concentrations of inhibitors (c) or for the indicated times with the indicated concentration of inhibitors (d) by western blotting. (e) MDAMB-468 cells were treated with vehicle, TNFα (20 ng/ml), YK5 (1 μM), pretreated with YK5 for 2 h before TNFα or co-treated, and cells were lysed for western blot analysis (left), or cell death was quantified by analyzing the hypodiploid population upon propidium iodine staining (right). […]
To determine whether cell death by YK5 was attributable to apoptosis, cells were treated with YK5 and effects on morphology, as well as on several effectors and mediators of apoptosis were analyzed (FIG. 13). To quantify the number of cells undergoing apoptosis, cells were stained with acridine orange/ethidium bromide (AO/EB) and analyzed under a fluorescence microscope for the percentage of viable, apoptotic (early and late) and necrotic cells. […]
Apoptosis-Acridine Orange/Ethidium Bromide. […] Percentage of apoptotic cells was determined from 200-300 cells counted in each group.

[2] = system: MDA-MB-468, SKBr3, LNCaP, MOLM-13, Kasumi-1, OCI-Ly7 and HuH7 cells; experiment: Growth inhibition in a panel of cancer cells; conditions: growth over 72 h
Method: Tested were MDA-MB-468 triple-negative breast cancer cells, SKBr3 HER2+breast cancer cells, LNCaP mAR+prostate cancer cells, MOLM-13 and Kasumi-1 acute myeloid leukemia cells, OCI-Ly7 diffuse large B-cell lymphoma cells and HuH7 hepatocellular carcinoma cells. […] In cancer cells, half growth inhibitory concentrations ([…]) recorded for YK5 were in high agreement with its potency to degrade Hsp90 onco-clients.
Growth Inhibition Assay. Antiproliferative effects of inhibitors were evaluated using the dye Alamar blue. This reagent offers a rapid objective measure of cell viability in cell culture, and it uses the indicator dye resazurin to measure the metabolic capacity of cells, an indicator of cell viability. Briefly, cells were plated on Costar 96-well plates. For attached cells (such as SKBr3, MDA-MB-468, LNCaP, MRCS), 8,000 cells/well were used. For suspension cells (such as MOLM-13, Kasumi-1, OCI-Ly7, PBL), 20,000 cells/well were plated. Cells were allowed to incubate for 24 h at 37° C. before drug treatment. Drugs were added in triplicates at the indicated concentrations, and the plate was incubated for 72 h. Alamar Blue (440 μM) was added, and the plate read 6 h later using the Analyst GT (Fluorescence intensity mode, excitation 530 nm, emission 580 nm, with 560=dichroic mirror). Results were analyzed using the Softmax Pro software. The percentage cell growth inhibition was calculated by comparing fluorescence readings obtained from treated versus control cells, accounting for initial cell population (time zero).

[3] = system: HER2, Raf-1, Akt, Hsp70 in SKBr3 cells; experiment: Western blotting of Hsp90 onco-client proteins and Hsp70 in SKBr3 cells; conditions: SKBr3 cells, 24 h
Method: FIG. 3. Testing strategy for the discovery of YK5. a, b) SKBr3 cells were treated for 24 h with the indicated concentrations of inhibitors and cells were lysed for western blot (WB) analysis. β-actin was used as loading control. The data are consistent with those obtained from multiple repeat experiments (n≧3). c) The ability of the indicated inhibitors to compete with GM-Cy3B for Hsp90 binding in SKBr3 cell extracts was examined by fluorescence polarization. Values recorded in wells with added inhibitor were normalized to values read in control wells and plotted against the concentration of tested inhibitor. Drugs were assayed in triplicate. All compounds were used as DMSO stocks. Points, mean; bars, s.d. d) Growth inhibition: SKBr3 cells were incubated in triplicate with increasing concentrations of compound and growth over 72 h was assessed. Y-axis values below 0% represent cell death of the starting population. HER2 degradation was analyzed as in panel a), and gels were quantified by densitometry. Recorded values were normalized to control (vehicle only treated cells) and data graphed against YK5 concentration. Error bars represent the s.d. of the mean (n=3).
FIG. 8. […] Points, mean; bars, s.d. Yaxis values below 0% represent cell death of the starting population. c) Streptavidin beads (50 μl) were incubated with the indicated concentrations of YK55, YK56 or D-biotin to immobilize the corresponding compounds on beads. Beads (50 μl) were probed with SKBr3 cell extracts (500 μg), and the precipitated Hsp70 analyzed by western blot and quantified by […]. Results from three independent experiments were graphed to determine the relative binding affinity of YKs. Points, mean; bars, s.d. d) Structure of representative YKs. YK55 and YK56 are the biotinylated derivatives of YK54 and YK57, respectively.
FIG. 9. […] Cells were treated for 24 h with the indicated concentrations of YK149 and YK5. Cells were lysed and proteins analyzed by western blotting. b) Examples of the compounds of the present subject matter inhibit the activity of the oncogenic STAT3 in the triple-negative breast cancer cells MDA-MB-468. Cells were treated for the indicated times with compounds or vehicle and proteins analyzed by western blot. (c) Examples of the compounds of the present subject matter dose-dependently induce apoptosis in the acute myeloid leukemia cells MOLM13. Cells were treated for 24 h with the indicated concentration of compounds and the increase in caspase3,7 activity was measured and compared to only vehicle (DMSO) treated cells. Caspase-3,7 activity was a measure of compound potency in cleaving the caspase substrate Z-DEVD-R110 and releasing rhodamine. The percentage increase in apoptotic cells was calculated by comparing the fluorescence readings obtained from compounds with those obtained from vehicle (DMSO)-treated cells.
Western Blotting. Cells were grown to 60-70% confluence and treated with inhibitor or DMSO vehicle for the indicated times. Protein lysates were prepared in 50 mM Tris pH 7.4, 150 mM NaCl and 1% NP-40 lysis buffer. Protein concentrations were measured using the BCA kit (Pierce) according to the manufacturer's instructions. […]

Q: For `C#CCCCn1c(Cc2cc(OC)c(OC)c(OC)c2Cl)nc2c(N)nc(F)nc21` [PU24FCl, reference compound], which cells undergoing apoptosis [1] is on record?
A: 9%

Q: What about the “growth of all tested cancer cells” value [2] of the same compound?
A: inhibited the growth of all tested cancer cells

Q: And the “feed-back induction of Hsp70 (heat shock response)” value [3]?
A: potently activated a heat shock response
